Where “and” joins values, the source holds several entries; their conditions need not be identical. Identical values can stand only once. Like-named read-outs stand apart in the source and are kept apart here.
Experiments:
[1] = tested on: P. falciparum 3D7 strain; assay: Drug susceptibility assay for P. falciparum using HRP2 sandwich ELISA; type: cell-based; conditions: read-out: IC50 inhibition of P. falciparum parasites in culture
Method: The P. falciparum 3D7 strain was cultured and maintained according to the standard procedures with minor modifications. Cultures were maintained in RPMI 1640 (GibcoTM, Waltham, MA, USA) supplemented with 0.5% Albumax (GibcoTM), 50 mg/L hypoxanthine (Sigma-Aldrich), 2 gm/L D-glucose (Sigma-Aldrich), 2 gm/L sodium bicarbonate (Sigma-Aldrich), and 56 mg/L of gentamicin (Abbott, Chicago, IL, USA). Blood for parasite cultures was procured from volunteer blood donors with approval from the Institute Ethical Committee.
Samples from the continuous culture of P. falciparum were synchronised to obtain predominant rings of 0.25% parasitemia at 3% haematocrit. Compounds were made at a stock concentration of 10 mM in 100% DMSO, with the FDA-approved antimalarial dihydroartemisinin (a kind gift from IPCA Laboratories, Mumbai, India) as a control. Compound dilutions were made in RPMI 1640 to obtain the desired final test concentrations for the IC50 analysis.
The HRP2-sandwich ELISA assay was performed according to the standard protocol. Briefly, the PfHRP2 protein concentration in the culture wells, indicative of the level of parasitemia, is measured using a sandwich ELISA technique. Serial 2-fold dilutions of compounds (25 µL/well) were manually dispensed into standard 96-well microculture plates (Eppendorf). Subsequently, 200 µL of P. falciparum culture at 0.25% parasitemia (3% haematocrit) was added to each well. The plates were then incubated for 72 h at 37 °C in 5% CO2 in a humidified incubator. Plates were then subjected to freeze–thaw to achieve complete haemolysis. PfHRP2 levels in control and test samples were measured using a horseradish peroxidase enzyme-linked immunosorbent assay at 450 nm. GraphPad Prism 9.2.0 was used to perform non-linear regression analysis to determine the IC50 values.
(§1) Non-linear regression analysis was performed in GraphPad Prism 9.2.0 (San Diego, CA, USA) to fit four parameter dose–response curves using the formula: y = a + ((b − a)/(1 + 10^(Log(c) − x) × d)), where a and b are the minimum and maximum asymptotes respectively, c is the half-maximal inhibitory concentration value (IC50), and d is the slope at the steepest part of the curve (the Hill slope).

[2] = biological target: TgIMPα:MmIMPβ1 (Toxoplasma gondii, UniProt A0A125YID0); assay: AlphaScreen binding assay, inhibition of TgIMPα binding to MmIMPβ1
Method: (§2) IC50 analysis was performed in quadruplicate using an AlphaScreen binding assay as previously, using bacterially expressed glutathione S-transferase (GST)-C-terminally tagged PfIMPα and TgIMPα proteins, as well as SV40 T-ag-NLS-GFP fusion protein and MmIMPβ1 [11, 41]. As previously, nickel-acceptor and streptavidin-donor beads were used. The AlphaScreen signal was measured on a Perkin Elmer plate reader, and IC50 plots drawn using GraphPad Prism 9.0.2 (San Diego, CA, USA).
as §1

[3] = biological target: T1, TgIMPα (Toxoplasma gondii, UniProt A0A125YID0); assay: Intrinsic tryptophan fluorescence assay, TgIMPα; type: binding
Method: (§3) Tryptophan fluorescence spectroscopy experiments were performed using a JASCO Fluorescence Spectrophotometer (JASCO, Hachioji, Tokyo, Japan) (0.5 mL quartz cuvette), with a fixed excitation wavelength of 295 nm and emission spectra collected between 310 and 400 nm with a slit width of 5 nm at 25 °C. Increasing concentrations of compounds in DMSO were incubated with the IMPαs (1 µM) in PBS for 5 min at room temperature prior to measurement. Data from three independent experiments were analysed using GraphPad Prism 10 (San Diego, CA, USA). Non-linear regression analysis was used to fit the one-site binding curves using the equation: y = Bmax * x/(Kd + x), where Bmax represents the maximum binding capacity and Kd is the dissociation constant, reflecting the concentration of ligand at which half-maximal binding is achieved.

[4] = biological target: T2, PfIMPα (Plasmodium falciparum, UniProt Q8IAW0); assay: Intrinsic tryptophan fluorescence assay, PfIMPα; type: binding
Method: as §3

[5] = biological target: PfIMPα:MmIMPβ1 (Plasmodium falciparum, UniProt Q8IAW0); assay: AlphaScreen binding assay, inhibition of PfIMPα binding to MmIMPβ1
Method: as §2, §1

[6] = biological target: T3, MmΔIBBIMPα:T-ag-NLS-GFP (Mus musculus, UniProt P52293); assay: AlphaScreen binding assay, inhibition of MmΔIBBIMPα binding to T-ag-NLS-GFP
T3 construct: made in house

[7] = biological target: T4, MmIMPα (Mus musculus, UniProt P52293); assay: Intrinsic tryptophan fluorescence assay, MmIMPα; type: binding; conditions: pooled, mean ± SEM (n = 3); IMPα 1 µM, 340 nm
T4 construct: GST; made in house
Method: as §3

[8] = biological target: T2, PfIMPα; assay: Far-UV CD spectroscopy, PfIMPα; type: binding; conditions: 30 or 80 μM compound
Method: (§4) CD spectroscopy experiments were carried out to assess direct binding of moxidectin and ivermectin to different IMPαs as described. CD spectra at […] protein concentration were recorded from 200–260 nm using a Jasco CD spectrometer (Jasco, Easton, MD, USA) in the absence and presence of 30 or 80 μM ivermectin or moxidectin, with percentage α-helix content estimated from the ellipticity at 222 nm as described using the CD Multivariate secondary structure estimation analysis program.

[9] = biological target: T1, TgIMPα; assay: Far-UV CD spectroscopy, TgIMPα; type: binding; conditions: 30 or 80 μM compound
Method: as §4

[10] = biological target: TgIMPα:T-ag-NLS-GFP (Toxoplasma gondii, UniProt A0A125YID0); assay: AlphaScreen binding assay, inhibition of TgIMPα binding to T-ag-NLS-GFP
Method: as §2, §1

[11] = biological target: T5, MmIMPα:MmIMPβ1 (Mus musculus, UniProt P52293); assay: AlphaScreen binding assay, inhibition of MmIMPα binding to MmIMPβ1
T5 construct: GST; made in house

[12] = tested on: T. gondii RH strain expressing a luciferase reporter (RH-Fluc) tachyzoites; assay: T. gondii tachyzoite growth inhibition assay (luciferase) in HFF host cells; type: cell-based; conditions: 48 h, luminescence, mean ± SD (n = 3)
Method: A T. gondii RH strain expressing a luciferase reporter (RH-Fluc) was used to assess the effect of the inhibitors on growth as described. T. gondii tachyzoites were maintained and cultured at 37 °C in 5% CO2 in a humidified incubator using primary human foreskin fibroblasts (HFF, ATCC) maintained in Dulbecco’s modified Eagle medium (DMEM) (GibcoTM, Waltham, MA, USA) supplemented with 3.7 g/L sodium bicarbonate and 2.38 g/L HEPES, 10% Cosmic Calf serum (HycloneTM, Logan, UT, USA) and 20 mg/L gentamicin [46, 47]. Growth inhibition was monitored by luminescence, where 100 μL of culture medium without or with inhibitors, followed by 100 µL of DMEM containing 5000 parasites, were added to confluent monolayers of HFF cells in 96-well culture dishes (Eppendorf, Hamburg, Germany). After 48 h, 150 µL of the culture medium was discarded from each well, and 10 µL lysis buffer was added to lyse the parasites, followed by 50 μL of 2× luciferase assay reagent (Promega, Madison, WI, USA). Luminescence was then measured directly for 10 s using a Varioskan™ LUX multimode microplate reader (Thermo Fisher Scientific, Waltham, MA, USA). […]

[13] = biological target: PfIMPα:TGS1-NLS-GFP (Plasmodium falciparum, UniProt Q8IAW0); assay: AlphaScreen binding assay, inhibition of PfIMPα binding to TGS1-NLS-GFP; design: species or system P. falciparum
[14] = MTT assay for host cell cytotoxicity; type: cell-based; conditions: human, HFF cells (freshly confluent), mean ± SD (n = 2)
Method: The MTT assay was used to measure the cytotoxicity of the small molecules against the HFF cells as described. Briefly, freshly confluent HFF cells were incubated for 48 h in a 96-well culture plate at 37 °C in a humidified incubator (5% CO2 atmosphere) in the presence of increasing concentrations of compounds (total volume 200 uL). A 10 μL quantity of MTT reagent (Sigma Aldrich) prepared in complete DMEM medium was then added to each well, and incubation continued for a further 3 h. 150 μL of the medium containing the MTT reagent was then removed from each well and replaced with 150 μL DMSO. Plates were then incubated room temperature in the dark for 20 min, after which absorbance for each well was measured at 570 nm. Data were analysed in GraphPad Prism 9 software.

[15] = biological target: T4, MmIMPα; assay: Far-UV CD spectroscopy, MmIMPα; type: binding; conditions: 30 or 80 μM compound
Method: as §4

[16] = Plasmodium falciparum, 3D7, 72 h, asexual stages, pooled, mean ± SD (n = 3)
[17] = Plasmodium falciparum, 3D7, 72 h, single typical experiment of Figure 5, duplicate
[18] = pooled, mean ± SEM (n = 3), MmIMPβ1 30 nM, IMPα 30 nM
[19] = single typical experiment of Figure 2, quadruplet wells
[20] = pooled, mean ± SEM (n = 3), IMPα 1 µM, 340 nm
[21] = single typical set of measurements, Figure 4b
[22] = single experiment of Figure 1b, quadruplet wells

T2 sequence (Q8IAW0 entry or part of it): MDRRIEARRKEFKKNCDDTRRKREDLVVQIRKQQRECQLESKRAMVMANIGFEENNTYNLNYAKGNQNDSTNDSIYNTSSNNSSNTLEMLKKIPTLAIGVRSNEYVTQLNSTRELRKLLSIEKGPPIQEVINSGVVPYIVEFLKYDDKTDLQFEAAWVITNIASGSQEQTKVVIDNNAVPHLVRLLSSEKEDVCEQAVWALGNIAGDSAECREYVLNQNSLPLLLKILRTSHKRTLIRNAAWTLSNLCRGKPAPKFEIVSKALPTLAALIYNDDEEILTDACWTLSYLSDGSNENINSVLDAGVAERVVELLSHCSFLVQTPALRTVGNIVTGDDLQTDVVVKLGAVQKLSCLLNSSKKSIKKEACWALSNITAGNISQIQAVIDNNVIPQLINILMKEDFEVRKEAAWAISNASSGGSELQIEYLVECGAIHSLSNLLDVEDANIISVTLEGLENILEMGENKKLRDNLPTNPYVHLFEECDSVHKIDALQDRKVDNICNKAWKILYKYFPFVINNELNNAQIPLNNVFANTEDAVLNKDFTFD
T1 sequence (A0A125YID0 entry or part of it): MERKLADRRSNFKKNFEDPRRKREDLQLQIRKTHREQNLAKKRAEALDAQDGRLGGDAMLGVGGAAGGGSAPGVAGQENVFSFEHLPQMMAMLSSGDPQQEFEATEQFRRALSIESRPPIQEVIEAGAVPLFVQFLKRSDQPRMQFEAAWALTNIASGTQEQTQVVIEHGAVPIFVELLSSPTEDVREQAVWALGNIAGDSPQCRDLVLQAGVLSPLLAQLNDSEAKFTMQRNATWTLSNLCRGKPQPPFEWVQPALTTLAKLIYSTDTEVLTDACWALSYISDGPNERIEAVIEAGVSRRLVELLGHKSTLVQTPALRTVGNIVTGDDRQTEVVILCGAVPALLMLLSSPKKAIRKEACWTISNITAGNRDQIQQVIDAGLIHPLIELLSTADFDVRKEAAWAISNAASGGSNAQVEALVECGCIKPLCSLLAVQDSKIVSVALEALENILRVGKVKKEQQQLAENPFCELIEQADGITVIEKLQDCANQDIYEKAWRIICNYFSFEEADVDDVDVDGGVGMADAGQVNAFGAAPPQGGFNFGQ
PfIMPα:TGS1-NLS-GFP, sequence (Q8IAW0 entry or part of it): as the sequence (Q8IAW0 entry or part of it) above
PfIMPα:MmIMPβ1, sequence (Q8IAW0 entry or part of it): as above
PfIMPα:MmIMPβ1, sequence (P70168 whole entry, further chain): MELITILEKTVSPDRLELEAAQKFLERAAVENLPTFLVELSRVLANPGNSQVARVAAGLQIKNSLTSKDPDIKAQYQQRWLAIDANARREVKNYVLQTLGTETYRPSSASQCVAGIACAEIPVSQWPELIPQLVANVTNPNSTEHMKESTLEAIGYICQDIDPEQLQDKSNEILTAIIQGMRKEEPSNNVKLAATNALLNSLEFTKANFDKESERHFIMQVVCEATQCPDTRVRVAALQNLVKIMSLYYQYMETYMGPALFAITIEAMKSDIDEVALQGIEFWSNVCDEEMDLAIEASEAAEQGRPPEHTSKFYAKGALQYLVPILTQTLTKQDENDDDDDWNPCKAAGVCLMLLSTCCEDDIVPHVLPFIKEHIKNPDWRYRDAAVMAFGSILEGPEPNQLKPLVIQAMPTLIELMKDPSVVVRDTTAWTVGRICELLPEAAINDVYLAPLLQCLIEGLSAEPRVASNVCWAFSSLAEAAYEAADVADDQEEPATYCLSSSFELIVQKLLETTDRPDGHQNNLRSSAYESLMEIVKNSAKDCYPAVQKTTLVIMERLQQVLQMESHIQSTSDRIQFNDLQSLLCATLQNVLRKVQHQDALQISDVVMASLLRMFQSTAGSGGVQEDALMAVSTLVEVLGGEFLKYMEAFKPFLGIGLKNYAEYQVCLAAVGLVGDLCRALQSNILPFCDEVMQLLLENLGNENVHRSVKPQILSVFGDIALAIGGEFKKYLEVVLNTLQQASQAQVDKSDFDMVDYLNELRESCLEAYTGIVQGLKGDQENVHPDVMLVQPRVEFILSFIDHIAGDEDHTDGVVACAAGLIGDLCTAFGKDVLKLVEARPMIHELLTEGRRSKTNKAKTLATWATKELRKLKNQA
TgIMPα:T-ag-NLS-GFP, sequence (A0A125YID0 entry or part of it): as the sequence (A0A125YID0 entry or part of it) above
TgIMPα:MmIMPβ1, sequence (P70168 whole entry, the tested form may be a part): as the sequence (P70168 whole entry, further chain) above
TgIMPα:MmIMPβ1, sequence (A0A125YID0 entry or part of it): as the sequence (A0A125YID0 entry or part of it) above

In the case of `C[C@H]1[C@@H](O)O[C@@H]2O[C@@]3(C)CC[C@H]4[C@H](C)CC[C@@H]1[C@@]24OO3` [DHA, dihydroartemisinin], the IC50 [1, 16] is reported as 1 ± 0.5 nM and the IC50 [1, 17] is reported as 0.7 nM.

With `CO/N=C1\C[C@]2(C[C@@H]3C[C@@H](C/C=C(\C)C[C@@H](C)/C=C/C=C4\CO[C@@H]5[C@H](O)C(C)=C[C@@H](C(=O)O3)[C@]45O)O2)O[C@H](/C(C)=C/C(C)C)[C@H]1C` [Moxidectin, moxidectin] the IC50 [2, 18] was 2700 ± 200 nM, the IC50 [2, 19] was 3200 nM and the Kd [3, 20] was 19 ± 2.2 µM. For the same compound, the Kd [3, 21] was 19.3 µM, the Kd [4, 20] was 7.8 ± 1.2 µM and the Kd [4, 21] was 8.3 µM. It also gave an IC50 [5, 18] of 3.4 ± 0.4 µM, an IC50 [5, 19] of 3.8 µM and an IC50 ([6]; pooled, mean ± SEM (n = 3), IMPα 5 nM, NLS protein 30 nM, read-out: IC50 inhibition of MmΔIBBIMPα:Tag-NLS-GFP binding) of 3.6 ± 0.5 µM. The IC50 [6, 22] was 2.8 µM, the Kd [7] was 4.1 ± 0.2 µM and the “Effect on α-helicity of PfIMPα (CD spectra)” value [8] was “concentration-dependent reduction in α-helicity”. The “Effect on α-helicity of TgIMPα (CD spectra)” value [9] was “concentration-dependent reduction in α-helicity”, the IC50 [1, 16] was 1000 nM and the IC50 [1, 17] was 800 nM. It also gave an IC50 ([1]; asexual stages, 72 h, pooled, mean ± SD (n = 3)) of 900 ± 100 nM, an IC50 ([10]; pooled, mean ± SEM (n = 3), IMPα 5 nM, NLS protein 30 nM, read-out: IC50 inhibition of TgIMPα:Tag-NLS-GFP binding) of 3.8 ± 0.8 µM and an IC50 [10, 22] of 3.6 µM. For the same compound, the IC50 [11, 18] was ~4 µM and 4 µM, the IC50 [11, 19] was 4.7 µM and the IC50 [12] was 35 ± 3.1 µM. For the same compound, the IC50 ([12]; Toxoplasma gondii) was 30 to 35 µM, the IC50 ([13]; pooled, mean ± SEM (n = 3), IMPα 5 nM, NLS protein 30 nM) was 4.8 ± 0.4 µM and the IC50 [13, 22] was 4.6 µM. For the same compound, the CC50 at 48 h [14] was about 10 µM and the “Effect on α-helicity of MmIMPα (CD spectra)” value [15] was “concentration-dependent reduction in α-helicity”.
